# Results published in patent US5783587A, “Benzoyl Piperidines/pyrrolidines for enhancing synaptic response” (The Regents of the University of California, priority 1997, dated 1998).
# System: AMPA receptors
# Test: In vitro physiological testing: field EPSPs in slices of rat hippocampus (CA1)
# Assay type: cell-based, rat (Sprague-Dawley)
# Conditions: rat hippocampal slices, 15-minute perfusion, paired-pulse, second response
# Experimental: The physiological effects of the compounds of this invention were determined by in vitro tests using slices of rat hippocampus according to the following procedure. Excitatory responses (field EPSPs) were measured in hippocampal slices, which are maintained in a recording chamber continuously perfused with artificial cerebrospinal fluid (ACSF). During a 15-minute interval, the perfusion medium was switched to one containing various concentrations of the test compounds. Responses collected immediately before and at the end of drug perfusion were superimposed in order to calculate both the percent increase in EPSP amplitude and the percent increase in the width of the response at one-half the peak height (half-width).
# To conduct these tests, the hippocampus was removed from anesthetized, 2-month old Sprague-Dawley rats, and in vitro slices (400 micrometers thick) were prepared and maintained in an interface chamber at 35° C. using conventional techniques. This is the procedure used by Dunwiddie and Lynch, as reported in J. Physiol. 276:353-367 (1978). The chamber was constantly perfused at 0.5 mL/min with ACSF containing (in mM): NaCl, 124; KCl, 3; KH2 PO4, 1.25; MgSO4, 2.5; CaCl2, 3.4; NaHCO3, 26; glucose, 10; and L-ascorbate, 2. A bipolar nichrome stimulating electrode was positioned in the dendritic layer (stratum radiatum) of the hippocampal subfield CA1 close to the border of subfield CA3.
# Current pulses (0.1 msec) through the stimulating electrode activated a population of the Schaffer-commissural (SC) fibers, which arise from neurons in the subdivision CA3 and terminate in synapses on the dendrites of CA1 neurons. Activation of these synapses causes them to release the transmitter glutamate. Glutamate binds to the post-synaptic AMPA receptors, which then transiently open an associated ion channel and permit a sodium current to enter the postsynaptic cell. This current results in a voltage in the extracellular space (the field excitatory post-synaptic potential or field "EPSP"), which is recorded by a high impedance recording electrode positioned in the middle of the stratum radiatum of CA1.
# With the intensity of the stimulation current adjusted to produce half-maximal EPSPs (typically about 1.5-2.0 mV), paired stimulation pulses were given every 40 seconds with an interpulse interval of 200 msec. The field EPSPs of the second response were digitized and analyzed to determine amplitude and half-width. If the responses are stable for 15-30 minutes (baseline), test compounds were added to the perfusion lines for a period of about 15 minutes. The perfusion was then changed back to regular ACSF.
# Paired-pulse stimulation is used in this type of test because stimulation of the SC fibers in part activates interneurons that generate an inhibitory postsynaptic potential (IPSP) in the pyramidal cells of CA1. This feed-forward IPSP typically sets in after the EPSP reaches its peak. The feed-forward IPSP accelerates the repolarization and shortens the decay phase of the EPSP, and could thereby partially mask the effects of the test compounds. One of the relevant features of the feed-forward IPSP is that it cannot be reactivated for several hundred milliseconds following a stimulation pulse. This phenomenon can be employed to advantage to eliminate IPSP by delivering paired pulses separated by 200 milliseconds and using the second ("primed") response for data analysis.
# The field EPSP recorded in field CA1 after stimulation of CA3 axons is known to be mediated by AMPA receptors: the receptors are present in the synapses, as reported by Kessler, et al., Brain Res. 560:337-341 (1991), and drugs that selectively block the receptor selectively block the field EPSP. […] See, for example, Staubli, et al., Psychobiology 18:377-381 (1990); Xiao, et al., Hippocampus 1:373-380 (1991); and Staubli, et al., Hippocampus 2:49-58 (1992). […]
Compound,estimated concentration required to increase the amplitude of the EPSP to 25% above baseline (+25% Amplitude),estimated concentration required to increase the half-width of the EPSP by 50% (+50% Half-Width)
"COCc1ccc2c(c1)OC1CCCN1C2=O (racemic) [Compound VI, (R, S)-6-Methoxymethyl-2,3-dihydro-1H-pyrrolo[2,1-b][1,3]benzoxazine-9(3aH)-one]",0.1 mM,0.2 mM
"COCc1ccc2c(c1)C(=O)N1CCCC1O2 (racemic) [Compound VII, (R,S)-7-Methoxymethyl-2,3-dihydro-1H-pyrrolo[2,1-b][1,3]benzoxazine-9(3aH)-one]",0.3 mM,0.2 mM
"COCc1ccc(C(=O)N2CCCCC2)cc1 [Compound I, 1-(4'-Methoxymethylbenzoyl)piperidine]",0.3 mM,0.3 mM
"COCc1cccc(C(=O)N2CCCCC2)c1 [Compound II, 1-(3'-Methoxymethylbenzoyl)piperidine]",0.3 mM,> 1 mM
"CCOCc1ccc(C(=O)N2CCCCC2)cc1 [Compound III, 1-(4'-Ethoxymethylbenzoyl)piperidine]",> 1 mM,0.2 mM
"O=C(c1ccc(CO)cc1)N1CCCCC1 [Compound IV, 1-(4'-Hydroxymethylbenzoyl)piperidine]",1 mM,> 1 mM
"O=C(c1ccc(COc2ccc3c(c2)OCO3)cc1)N1CCCCC1 [Compound V, 1-(4'-(3"",4""-Methylenedioxyphenoxy)-methylbenzoyl)piperidine]",0.05 mM,> 0.1 mM

# System: not given
# Test: not given
# Conditions: following peripheral administration in humans; cited from earlier work
row,Compound,fraction of drug converted to anisoyl-GABA
1,"COc1ccc(C(=O)N2CCCC2=O)cc1 [aniracetam, N-anisoyl-2-pyrrolidinone]",about 80%
